Data as given in patent US11207310B2 (PRILENIA NEUROTHERAPEUTICS LTD., priority 2016, dated 2021).
Where two headings read alike, the source gives them in different places.

Legend:
patients with HD [1] = system: patients with HD
Procedure: The independence scale of the UHDRS is a rating scale where the patient's degree of independence was given in percentage, from 10% (tube fed, total bed care) to 100% (no special care needed). […] Patients with a UHDRS-IS score >90% at the screening visit were not eligible for the study.
It is a rating scale where the patient's degree of independence is given in percentage, from 10% (tube fed, total bed care) to 100% (no special care needed). […] The scale was assessed at screening, baseline, weeks 4, 12, 20, 26/Early Termination, 28 and 52/Early Termination.

patients with HD [2] = system: patients with HD; remark: listed apart in the source
Procedure: The PBA-s is a brief semi-structured interview covering the most common behavioral and psychiatric manifestations of HD. […] Severity and frequency scores are multiplied to produce an overall ‘PBA score’ for each symptom.
The PBA-s is a brief semi-structured interview covering the most common behavioral and psychiatric manifestations of HD.
The total PBA score is calculated by the sum of all PBA-s scores across symptoms/domains.

patients with HD [3] = conditions: for Δ to placebo: Q-Motor Tap-Speed-Inter-Onset-interval-MN-Hand, change from baseline: week 52
Excerpt: Motor deficits can be objectively assessed using different Q-Motor assessments. All Q-Motor assessments are based on the application of precalibrated and temperature controlled force transducers and 3-dimensional position sensors with very high sensitivity and test-retest reliability across sessions and sites in a multicenter clinical study. Q-Motor measures thus aim to reduce the limited sensitivity of categorical clinical rating scales, the intra- and inter-rater variability, and placebo effects observed in scales such as UHDRS-TMS. In addition, Q-Motor assessments allow for the objective monitoring of unintended motor side-effects in clinical studies. Thus, Q-Motor is an objective, reliable, and sensitive measure of motor function that is free of rater bias and limits placebo effect influence.
The patient placed their hand on a hand rest with their index finger positioned above a force-transducer. Recordings start after practice runs. The patient is instructed to finger tap as fast as possible between 2 auditory cues. The beginning of a tap is defined as a rise of the force by 0.05 N above maximal baseline level. The tap ends when it drops to 0.05 N before the maximal baseline level is reached again. The duration and variability of tap durations (TD), inter onset intervals (IOI), inter peak intervals (IPI), and inter tap intervals (ITI) are the exploratory outcome measures for speeded tapping. In addition, variability of peak tapping forces (TF) is calculated as coefficient of variation, and the tapping frequency (Freq), i.e., the number of taps between the onsets of the first and the last tap divided by the time in between, is determined. Five trials of 10 seconds duration are performed with each hand.

[4] = 90 mg bid, Week 26, Stage 1 BL TFC 11-13
[5] = 112.5 mg bid, Week 26, Stage 1 BL TFC 11-13

Compound: CCCN1CCC(c2cccc(S(C)(=O)=O)c2)CC1 [pridopidine, 4-[3-(methylsulfonyl)phenyl]-1-propyl-piperidine]
- UHDRS Independence Scale, change from baseline, Δ to placebo (patients with HD [1]; 67.5 mg bid, Week 52, BL TFC<7, p value 0.2415): −3.46
- UHDRS Independence Scale, change from baseline, Δ to placebo (patients with HD [1]; 67.5 mg bid, Week 52, BL TFC≥7, p value 0.0788): 2.22
- Change from baseline in UHDRS Independence Scale, Δ to placebo (patients with HD [1]; 67.5 mg bid, Week 52, Stage 1 BL TFC 11-13): 0.91
- Change from baseline in UHDRS Independence Scale, Δ to placebo (patients with HD [1]; 90 mg bid, Week 26, ALL): 0.78
- UHDRS Independence Scale, change from baseline, Δ to placebo (patients with HD [1]; 90 mg bid, Week 26, BL TFC<7, p value 0.9116): 0.2
- UHDRS Independence Scale, change from baseline, Wk 26 Δ to placebo (patients with HD [1]; 90 mg bid, Week 26, BL TFC≥7, p value 0.0949): 1.48
- Change from baseline in UHDRS Independence Scale, Δ to placebo (patients with HD [1]; [4]): 1.73
- Change from baseline in UHDRS Independence Scale, Δ to placebo (patients with HD [1]; 90 mg bid, Week 52, ALL): −0.07
- UHDRS Independence Scale, change from baseline, Δ to placebo (patients with HD [1]; 90 mg bid, Week 52, BL TFC<7, p value 0.0779): −5.25
- UHDRS Independence Scale, change from baseline, Δ to placebo (patients with HD [1]; 90 mg bid, Week 52, BL TFC≥7, p value 0.0228): 2.79
- Change from baseline in UHDRS Independence Scale, Δ to placebo (patients with HD [1]; 90 mg bid, Week 52, Stage 1 BL TFC 11-13): 1.16
- Change from baseline in UHDRS Independence Scale, Δ to placebo (patients with HD [1]; 112.5 mg bid, Week 26, ALL): 1.41
- UHDRS Independence Scale, change from baseline, Δ to placebo (patients with HD [1]; 112.5 mg bid, Week 26, BL TFC<7, p value 0.3578): 1.65
- UHDRS Independence Scale, change from baseline, Wk 26 Δ to placebo (patients with HD [1]; 112.5 mg bid, Week 26, BL TFC≥7, p value 0.0919): 1.51
- Change from baseline in UHDRS Independence Scale, Δ to placebo (patients with HD [1]; [5]): 2.38
- Change from baseline in UHDRS Independence Scale, Δ to placebo (patients with HD [1]; 112.5 mg bid, Week 52, ALL): 0.18
- UHDRS Independence Scale, change from baseline, Δ to placebo (patients with HD [1]; 112.5 mg bid, Week 52, BL TFC<7, p value 0.8613): −0.52
- UHDRS Independence Scale, change from baseline, Δ to placebo (patients with HD [1]; 112.5 mg bid, Week 52, BL TFC≥7, p value 0.7301): 0.44
- Change from baseline in UHDRS Independence Scale, Δ to placebo (patients with HD [1]; 112.5 mg bid, Week 52, Stage 1 BL TFC 11-13): −1.61
- change from baseline in the UHDRS-IS (patients with HD [1]; any treatment group, week 52): not statistically significant in any treatment group
- Change from baseline in PBA Total Score, Δ to placebo (patients with HD [2]; 45 mg bid, Week 26, ALL, full analysis set): −0.46
- Change from baseline in PBA Total Score, Δ to placebo (patients with HD [2]; 45 mg bid, Week 26, Stage 1 BL TFC 11-13): −4.83
- Change from baseline in PBA Total Score, Δ to placebo (patients with HD [2]; 45 mg bid, Week 52, BL TFC≥7): −2.74
- Change from baseline in PBA Total Score, Δ to placebo (patients with HD [2]; 67.5 mg bid (table has no head; column order as in the other tables), Week 52, Full analysis set): −0.63
- Change from baseline in PBA Total Score, Δ to placebo (patients with HD [2]; 67.5 mg bid, Week 26, ALL, full analysis set): −1.83
- Change from baseline in PBA Total Score, Δ to placebo (patients with HD [2]; 67.5 mg bid, Week 26, Stage 1 BL TFC 11-13): −9.22
- Change from baseline in PBA Total Score, Δ to placebo (patients with HD [2]; 67.5 mg bid, Week 52, BL TFC≥7): 0.61
- Change from baseline in PBA Total Score, Δ to placebo (patients with HD [2]; 90 mg bid (table has no head; column order as in the other tables), Week 52, Full analysis set): −0.38
- Change from baseline in PBA Total Score, Δ to placebo (patients with HD [2]; 90 mg bid, Week 26, ALL, full analysis set): 0.51
- Change from baseline in PBA Total Score, Δ to placebo (patients with HD [2]; [4]): −4.74
- Change from baseline in PBA Total Score, Δ to placebo (patients with HD [2]; 90 mg bid, Week 52, BL TFC≥7): 0.9
- Change from baseline in PBA Total Score, Δ to placebo (patients with HD [2]; 112.5 mg bid (table has no head; column order as in the other tables), Week 52, Full analysis set): 0.3
- Change from baseline in PBA Total Score, Δ to placebo (patients with HD [2]; 112.5 mg bid, Week 26, ALL, full analysis set): −1.85
- Change from baseline in PBA Total Score, Δ to placebo (patients with HD [2]; [5]): −7.08
- Change from baseline in PBA Total Score, Δ to placebo (patients with HD [2]; 112.5 mg bid, Week 52, BL TFC≥7): 1.4
- Δ to placebo: Q-Motor Tap-Speed-Inter-Onset-interval-MN-Hand, change from baseline (patients with HD [3]; 45 mg bid, FAS): -0.0402 s
- Δ to placebo: Q-Motor Tap-Speed-Inter-Onset-interval-MN-Hand, change from baseline (patients with HD [3]; 45 mg bid, HD1 and HD2 patients): -0.0351 s
- Δ to placebo: Q-Motor Tap-Speed-Inter-Onset-interval-MN-Hand, change from baseline (patients with HD [3]; 67.5 mg bid, FAS): 0.0152 s
- Δ to placebo: Q-Motor Tap-Speed-Inter-Onset-interval-MN-Hand, change from baseline (patients with HD [3]; 67.5 mg bid, HD1 and HD2 patients): -0.0464 s
- Δ to placebo: Q-Motor Tap-Speed-Inter-Onset-interval-MN-Hand, change from baseline (patients with HD [3]; 90 mg bid, FAS): -0.0064 s
- Δ to placebo: Q-Motor Tap-Speed-Inter-Onset-interval-MN-Hand, change from baseline (patients with HD [3]; 90 mg bid, HD1 and HD2 patients): -0.0291 s
- Q-Motor Tap-Speed-Frequency (patients with HD [3]; 90 mg bid, weeks 4, 12, 26 (FIG. 38)): consistent improvement from baseline
- Q-Motor Tap Speed Inter Onset Interval (IOI) (patients with HD [3]; 90 mg bid, weeks 4, 12, 26 (FIG. 39a)): consistent and significant improvement from baseline
- Δ to placebo: Q-Motor Tap-Speed-Inter-Onset-interval-MN-Hand, change from baseline (patients with HD [3]; 112.5 mg bid, FAS): -0.017 s
- Δ to placebo: Q-Motor Tap-Speed-Inter-Onset-interval-MN-Hand, change from baseline (patients with HD [3]; 112.5 mg bid, HD1 and HD2 patients): -0.022 s
